According to patent US20230382904A1, “SUBSTITUTED 4-([1,2,4]TRIAZOLO[1,5-a]PYRIDIN-6-YL)THIOPHENE-2-CARBOXAMIDE DERIVATIVES AND USE THEREOF” (The Johns Hopkins University, priority 2020, published 2023):

Experiments:
DLK = DLK (Homo sapiens (Human), UniProt Q12852); test: DLK biochemical assay (TR-FRET, MKK7 phosphorylation)
Outline: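 TR-FRET ratio (665/Eu) reports MKK7 T275/S277 phosphorylation, lowered by DLK inhibition. Reaction: 60 μM ATP, 15 nM MKK7, 10 nM DLK catalytic domain, 90 min room temperature; detection incubation 16 h, 37° C. (1536-well) or 4° C. (384-well). Final concentrations.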

LZK = LZK (Homo sapiens (Human), UniProt O43283); test: LZK biochemical assay (TR-FRET, MKK7 phosphorylation)
Chain of LZK (O43283 168-409): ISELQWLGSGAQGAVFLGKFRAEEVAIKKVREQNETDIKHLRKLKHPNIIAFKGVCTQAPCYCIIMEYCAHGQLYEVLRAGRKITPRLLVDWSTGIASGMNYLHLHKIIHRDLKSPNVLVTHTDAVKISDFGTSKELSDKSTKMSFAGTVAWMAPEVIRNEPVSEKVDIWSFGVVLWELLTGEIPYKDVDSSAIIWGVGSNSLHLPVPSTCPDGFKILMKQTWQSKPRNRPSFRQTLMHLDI
Outline: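 Readout is the HTRF ratio (XL665/Eu) from an EDTA-containing detection mix of 0.4 nM Eu-anti-phospho-MKK7 (T275/S277) and 20 nM XL665-anti-His, incubated 16 h at 32° C. This followed a 90 min RT reaction of 10 nM LZK catalytic domain, 15 nM MKK7 and 15 μM ATP at pH 7.5.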

Chain of DLK (Q12852 1-520): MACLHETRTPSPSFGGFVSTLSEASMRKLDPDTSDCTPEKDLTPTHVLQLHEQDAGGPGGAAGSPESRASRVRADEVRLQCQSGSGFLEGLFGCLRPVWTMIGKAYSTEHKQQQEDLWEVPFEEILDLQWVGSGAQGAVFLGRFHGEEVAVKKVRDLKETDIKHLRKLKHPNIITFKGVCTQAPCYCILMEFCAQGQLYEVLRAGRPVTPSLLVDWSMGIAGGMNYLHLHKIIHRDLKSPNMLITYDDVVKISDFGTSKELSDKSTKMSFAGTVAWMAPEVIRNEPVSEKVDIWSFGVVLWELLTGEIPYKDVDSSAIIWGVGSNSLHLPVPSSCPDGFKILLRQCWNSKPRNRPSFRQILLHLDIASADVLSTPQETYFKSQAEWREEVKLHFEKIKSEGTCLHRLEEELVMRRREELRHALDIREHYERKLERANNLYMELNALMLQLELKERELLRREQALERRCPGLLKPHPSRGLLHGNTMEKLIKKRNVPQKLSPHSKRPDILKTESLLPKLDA

IC50 (DLK) [nM] | IC50 (LZK) [nM] | SMILES
480 | > 30000 | COc1ccccc1NC(=O)c1cc(-c2ccc3nc(N)nn3c2)cs1 [Compound 228]
1140 | 4400 | Nc1nc2ccc(-c3csc(C(=O)NCc4nc5ccccc5o4)c3)cn2n1 [Compound 246]
120 | 990 | CNC(=O)c1cc(-c2csc(C(=O)NCc3ccccc3)c2)cn2nc(N)nc12 [Compound 10]
210 | 2400 | C[C@H](NC(=O)c1cc(-c2cc(C(F)(F)F)c3nc(N)nn3c2)cs1)c1ccc(F)cc1 [Compound 377]
1900 | > 30000 | CC(NC(=O)c1cc(-c2ccc3nc(N)nn3c2)cs1)c1ccc(OC(F)(F)F)cc1 (stereo not shown) [Compound 361]
1700 | 20000 | Nc1nc2ccc(-c3csc(C(=O)NCc4cccc(C(=O)O)c4)c3)cn2n1 [Compound 285]
1000 | > 30000 | Cc1c(-c2ccc3nc(N)nn3c2)csc1C(=O)NCc1ccc(F)cc1 [Compound 352]
2.8 | 60 | C[C@H](NC(=O)c1cc(-c2cc(C(=O)NC3CNC(=O)C3)c3nc(N)nn3c2)cs1)c1ccccc1 (mixture of isomers) [Compound 29]
2300 | > 30000 | C[C@@H](CO)NC(=O)c1cc(-c2ccc3nc(N)nn3c2)cs1 [Compound 345]
935 | 4500 | Nc1nc2ccc(-c3csc(C(=O)NCc4cnc(Cl)s4)c3)cn2n1 [Compound 250]
130 | > 30000 | C[C@H](NC(=O)c1cc(-c2ccc3nc(N)nn3c2)cs1)c1cccc(Cl)c1 [Compound 265]
30.5 | 124 | CC(C)NC(=O)c1cc(-c2csc(C(=O)NCc3ccc(F)cc3)c2)cc2nc(N)nn12 [Compound 145]
270 | > 30000 | COc1cc(CNC(=O)c2cc(-c3ccc4nc(N)nn4c3)cs2)cc(OC)c1 [Compound 238]
860 | 11000 | COc1cc(CNC(=O)c2cc(-c3ccc4nc(N)nn4c3)cs2)ccc1F [Compound 231]
1000 | 10000 | COc1cccc(CNC(=O)c2cc(-c3ccc4nc(N)nn4c3)cs2)n1 [Compound 254]
1200 | > 30000 | C[C@H]1CCC[C@H](NC(=O)c2cc(-c3ccc4nc(N)nn4c3)cs2)C1 (single isomer, unassigned) [Compound 199]
28.5 | 240 | CC(NC(=O)c1cc(-c2csc(C(=O)N[C@@H](C)c3ccc(F)cc3)c2)cn2nc(N)nc12)C(F)(F)F (mixture of isomers) [Compound 51]
570 | 3700 | Nc1nc2c(C(=O)NCC(F)(F)F)cc(-c3csc(C(=O)NCc4ccc(F)cc4)c3)cn2n1 [Compound 61]
17 | 520 | CC(C)NC(=O)c1cc(-c2csc(C(=O)NC3CC(C)(C)Oc4ccccc43)c2)cn2nc(N)nc12 (stereo not shown) [Compound 121]
490 | 6800 | CC(NC(=O)c1cc(-c2ccc3nc(N)nn3c2)cs1)c1cn[nH]c1 (stereo not shown) [Compound 333]
290 | 800 | CC(C)NC(=O)c1cc(-c2csc(C(=O)NC3COC3)c2)cn2nc(N)nc12 [Compound 129]

IC50 (DLK) [nM] | IC50 (LZK) [nM] | SMILES
21 | 240 | CC(C)NC(=O)c1cc(-c2csc(C(=O)NC(COC(F)(F)F)c3ccccc3)c2)cn2nc(N)nc12 (stereo not shown) [Compound 117]
520 | > 30000 | Nc1nc2ccc(-c3csc(C(=O)NC4CCCC4)c3)cn2n1 [Compound 170]
36 | 680 | CC[C@@H](NC(=O)c1cc(-c2cc(C(=O)NC(C)C)c3nc(N)nn3c2)cs1)c1ccc(F)cc1 [Compound 134]
470 | 27000 | Nc1nc2ccc(-c3csc(C(=O)NCc4cccc(OCCN5CCOCC5)c4)c3)cn2n1 [Compound 207]
7.5 | 60 | C[C@H](NC(=O)c1cc(-c2cc(C(=O)N[C@H]3CCOC3)c3nc(N)nn3c2)cs1)c1ccc(F)cc1 [Compound 98]
160 | > 30000 | C[C@H](NC(=O)c1cc(-c2ccc3nc(N)nn3c2)cs1)c1ccccc1F [Compound 359]
64 | 230 | COc1cccc(CNC(=O)c2cc(-c3cc(C(=O)NC(C)C)n4nc(N)nc4c3)cs2)c1 [Compound 148]
25 | 160 | Nc1nc2c(C(=O)N[C@H]3CCOC3)cc(-c3csc(C(=O)NCc4ccccc4)c3)cn2n1 [Compound 103]
320 | > 30000 | CCOc1cccc(CNC(=O)c2cc(-c3ccc4nc(N)nn4c3)cs2)c1 [Compound 191]
5.25 | 295 | C[C@H](NC(=O)c1cc(-c2cc(C(=O)NC3CCC3)c3nc(N)nn3c2)cs1)c1ccc(F)cc1 [Compound 60]
9.3 | 40 | C[C@@H](CO)NC(=O)c1cc(-c2csc(C(=O)NCc3ccccc3)c2)cn2nc(N)nc12 [Compound 21]
1960 | 9100 | Cn1cnc(CNC(=O)c2cc(-c3ccc4nc(N)nn4c3)cs2)c1 [Compound 251]
37 | 130 | CC(C)(C)NC(=O)c1cc(-c2csc(C(=O)NCc3ccccc3)c2)cn2nc(N)nc12 [Compound 16]
87 | 480 | CCNC(=O)c1cc(-c2csc(C(=O)NCc3ccc(F)cc3)c2)cn2nc(N)nc12 [Compound 7]
24 | 430 | C[C@H](NC(=O)c1cc(-c2cc(C(=O)NC3CC3)c3nc(N)nn3c2)cs1)c1ccc(F)cc1 [Compound 45]
370 | 2800 | Cc1cc(-c2csc(C(=O)NCc3ccccc3)c2)cn2nc(N)nc12 [Compound 373]
710 | > 30000 | Nc1nc2ccc(-c3csc(C(=O)NCC4CCCCC4)c3)cn2n1 [Compound 187]
180 | 22000 | COc1ccc2c(c1)C(NC(=O)c1cc(-c3ccc4nc(N)nn4c3)cs1)CC(C)(C)O2 (stereo not shown) [Compound 268]
4.15 | 57 | CC[C@H](NC(=O)c1cc(-c2cc(C(=O)NC(C)C)n3nc(N)nc3c2)cs1)c1ccccc1 [Compound 152]
130 | 4800 | Nc1nc2ccc(-c3csc(C(=O)NC4CCOc5ccc(F)cc54)c3)cn2n1 (stereo not shown) [Compound 315]
800 | 2500 | CC[C@H](NC(=O)c1cc(-c2csc(C(=O)NCc3ccc(F)cc3)c2)cn2nc(N)nc12)C(F)(F)F [Compound 144-4]

IC50 (DLK) [nM] | IC50 (LZK) [nM] | SMILES
1500 | > 30000 | Nc1nc2ccc(-c3csc(C(=O)NCc4ccc(OCCN5CCOCC5)cc4)c3)cn2n1 [Compound 281]
300 | 28000 | CCOc1cccc(CNC(=O)c2cc(-c3ccn4nc(N)nc4c3)cs2)c1 [Compound 367]
38 | 770 | CC[C@@H](C)NC(=O)c1cc(-c2csc(C(=O)N[C@@H](CC)c3ccc(F)cc3)c2)cn2nc(N)nc12 [Compound 144]
4.35 | 255 | C[C@H](NC(=O)c1cc(-c2cc(C(=O)NC3CCC3)c3nc(N)nn3c2)cs1)c1ccccc1 [Compound 59]
315 | > 30000 | N#Cc1cccc(CNC(=O)c2cc(-c3ccc4nc(N)nn4c3)cs2)c1 [Compound 236]
150 | 3100 | CC(NC(=O)c1cc(-c2ccc3nc(N)nn3c2)cs1)c1nc2c(s1)CCCC2 (stereo not shown) [Compound 332]
710 | 11000 | Nc1nc2cc(F)c(-c3csc(C(=O)NCc4ccccc4)c3)cn2n1 [Compound 297]
63 | 5600 | CC[C@@H](C)NC(=O)c1cc(-c2csc(C(=O)N[C@H](CC)c3ccc(F)cc3)c2)cn2nc(N)nc12 [Compound 136]
1700 | 26000 | Nc1nc2ccc(-c3csc(C(=O)NC4CCOCC4)c3)cn2n1 [Compound 185]
1250 | > 30000 | C[C@H]1CCC[C@H](NC(=O)c2cc(-c3ccc4nc(N)nn4c3)cs2)C1 (single isomer, unassigned) [Compound 198]
730 | 12000 | COc1cccc(CNC(=O)c2cc(-c3cn4nc(N)nc4cc3F)cs2)c1 [Compound 296]
1300 | > 30000 | Nc1nc2ccc(-c3csc(C(=O)NCc4nc(C(F)(F)F)cs4)c3)cn2n1 [Compound 245]
56.5 | 130 | CC(C)(CO)NC(=O)c1cc(-c2csc(C(=O)NCc3ccc(F)cc3)c2)cn2nc(N)nc12 [Compound 80]
20 | 550 | C[C@H](NC(=O)c1cc(-c2cc(C(=O)N[C@H]3CCOC3)c3nc(N)nn3c2)cs1)c1ccc(C(F)(F)F)cc1 [Compound 105]
350 | 4200 | C[C@@H](NC(=O)c1cc(-c2ccc3nc(N)nn3c2)cs1)c1ccc(F)cc1 [Compound 298]
> 30000 | > 30000 | Cc1sc(C(=O)NCc2ccccc2)cc1-c1ccc2nc(N)nn2c1 [Compound 320]
100 | 830 | CC(C)c1nnc(-c2cc(-c3csc(C(=O)N[C@@H](C)c4ccc(F)cc4)c3)cn3nc(N)nc23)s1 [Compound 392]
260 | > 30000 | C[C@@H](NC(=O)c1cc(-c2ccc3nc(N)nn3c2)cs1)c1cccc(Cl)c1 [Compound 267]
120 | 4600 | C[C@H](NC(=O)c1cc(-c2cc(C(=O)NCC(F)(F)F)c3nc(N)nn3c2)cs1)c1ccc(F)cc1 [Compound 63]

SMILES | IC50 (DLK) [nM] | IC50 (LZK) [nM]
CN1C2CCC1CC(NC(=O)c1cc(-c3ccc4nc(N)nn4c3)cs1)C2 (stereo not shown) [Compound 201] | 2800 | > 30000
